In one assay the target is T1, human PAH with the R408W mutation (Homo sapiens, UniProt P00439, R408W).
T1 construct: expressed in transfected cells
T1 sequence (P00439 1-452 R408W): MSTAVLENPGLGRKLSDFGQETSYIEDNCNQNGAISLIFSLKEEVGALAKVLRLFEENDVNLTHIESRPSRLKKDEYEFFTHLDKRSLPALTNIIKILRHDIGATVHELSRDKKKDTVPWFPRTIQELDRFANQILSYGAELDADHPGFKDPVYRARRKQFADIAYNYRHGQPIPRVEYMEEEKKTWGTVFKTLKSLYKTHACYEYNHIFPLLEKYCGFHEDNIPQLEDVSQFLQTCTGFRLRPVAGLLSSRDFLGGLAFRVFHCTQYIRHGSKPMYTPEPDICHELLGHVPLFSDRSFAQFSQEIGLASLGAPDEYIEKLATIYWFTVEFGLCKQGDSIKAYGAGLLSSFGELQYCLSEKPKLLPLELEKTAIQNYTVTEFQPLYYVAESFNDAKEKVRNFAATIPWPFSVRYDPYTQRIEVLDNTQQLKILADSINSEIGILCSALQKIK
The assay can be described thus: Cell Based Phenylalanine Flux Assay.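 Further: after compound treatment, cells received sepiapterin plus isotope-labelled Phenylalanine for 4 hours, then labelled Tyrosine in the medium was quantified, 10-point 2-fold dilution series run in duplicate.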 Particulars: A375 cells expressing R408W PAH; 24 hrs with compound, then 20 µM sepiapterin and 800 µM 13C9,15N-Phenylalanine for 4 hours; 13C-Tyrosine by LC-MS; average where tested multiple times; read-out: AC50.
Method: Compounds were resuspended in DMSO, and 2-fold serial dilutions were performed to generate a 10-point dose curve. Compounds were added to plated cells in a total volume of 100 µl, and a final DMSO concentration of 0.5%. Each compound was tested in duplicate. Following compound addition, cells were placed in a 5% CO2, 37° C. tissue culture incubator for 24 hrs. After the incubation period, 20 µM sepiapterin and 800 µM 13C9,15N-Phenylalanine were added. After 4 hours, cell media was removed. An aliquot of 10 µl of cell media was combined with 200 µl of extraction buffer (80% acetonitrile/20% H2O) for each well. Determination of ^13C-Tyrosine concentration was assessed by liquid chromatography mass spectrometry.
Where a compound was tested multiple times, the average value of the tests is reported.
Broadly, the AC50 is the concentration at which the activity in the assay is half-maximal. Regarding `Fc1cccc2cc(C3c4nc[nH]c4CCN3c3nnc(C(F)(F)F)o3)nn12` (stereo not drawn), the AC50 was in the range of 1000 to 5000 nM. The same measure, in the same setting: with `O=C(c1nnc(-c2ncccn2)o1)N1CCc2[nH]cnc2C1c1cc2cccc(C(F)(F)F)n2n1` (stereo not drawn) the figure was 1000 to 5000 nM; with `Cn1ccc(-c2nnc(C(=O)N3CCc4[nH]cnc4C3c3cc4cc(C(F)(F)F)ccn4n3)o2)n1` (stereo not drawn), 1000 to 5000 nM. On the same count and under the same terms, with `Cn1nc(N)cc1C(=O)N1CCc2[nH]cnc2C1c1cc2ccccn2n1` (stereo not drawn) the figure was greater than 5000 nM.

The same assay, now with this note: A375 cells expressing human PAH R408W; 24 hrs compound incubation; 13C-Tyrosine by LC-MS; average where tested multiple times; read-out: AC50.
For `O=C(c1nnc(C2CC2)s1)N1CCc2[nH]cnc2[C@@H]1c1cc2c(F)cccn2n1` [Example 1992, (R)-(5-cyclopropyl-1,3,4-thiadiazol-2-yl)(4-(4-fluoropyrazolo[1,5-a]pyridin-2-yl)-1,4,6,7-tetrahydro-5H-imidazo[4,5-c]pyridin-5-yl)methanone], the AC50 is greater than 5000 nM.

For `O=C(c1cnc(-c2cnccn2)o1)N1CCc2[nH]cnc2[C@@H]1c1cc2c(C(F)(F)F)cccn2n1` [Example 2245, (R)-(2-(pyrazin-2-yl)oxazol-5-yl)(4-(4-(trifluoromethyl)pyrazolo[1,5-a]pyridin-2-yl)-1,4,6,7-tetrahydro-5H-imidazo[4,5-c]pyridin-5-yl)methanone], the AC50 was greater than 5000 nM. In the case of `FC(F)(F)c1ccc(N2CCc3[nH]cnc3[C@H]2c2cc3c(Cl)cccn3n2)nc1` [Example 2095, (S)-4-(4-chloropyrazolo[1,5-a]pyridin-2-yl)-5-(5-(trifluoromethyl)pyridin-2-yl)-4,5,6,7-tetrahydro-1H-imidazo[4,5-c]pyridine], the AC50 is less than 500 nM.

Take `CC(C)c1cccn2nc([C@H]3c4nc[nH]c4CCN3c3nnc(-c4ncccc4F)o3)cc12` [Example 2354, (R)-2-(3-fluoropyridin-2-yl)-5-(4-(4-isopropylpyrazolo[1,5-a]pyridin-2-yl)-1,4,6,7-tetrahydro-5H-imidazo[4,5-c]pyridin-5-yl)-1,3,4-oxadiazole]: the concentration at half-maximal activity (AC50) is greater than 5000 nM. Same read-out and setting: next, `CC(C)c1cccn2nc([C@@H]3c4nc[nH]c4CCN3c3nnc(C(C)(F)F)o3)cc12` [Example 2231, (S)-2-(1,1-difluoroethyl)-5-(4-(4-isopropylpyrazolo[1,5-a]pyridin-2-yl)-1,4,6,7-tetrahydro-5H-imidazo[4,5-c]pyridin-5-yl)-1,3,4-oxadiazole]: less than 500 nM; `FC(F)(F)c1cccn2nc([C@H]3c4nc[nH]c4CCN3c3cnccn3)cc12` [Example 1818, (R)-5-(pyrazin-2-yl)-4-(4-(trifluoromethyl)pyrazolo[1,5-a]pyridin-2-yl)-4,5,6,7-tetrahydro-1H-imidazo[4,5-c]pyridine]: greater than 5000 nM. On the same count and under the same terms, with `FC(F)(F)c1nnc(N2CCc3[nH]cnc3[C@H]2c2cc3cccc(C(F)(F)F)n3n2)o1` [Example 2491, (S)-2-(trifluoromethyl)-5-(4-(7-(trifluoromethyl)pyrazolo[1,5-a]pyridin-2-yl)-1,4,6,7-tetrahydro-5H-imidazo[4,5-c]pyridin-5-yl)-1,3,4-oxadiazole] the figure was 1000 to 5000 nM.

Still in this assay, the particulars now being: A375 cells expressing human R408W PAH; 24 hrs compound incubation; 13C-Tyrosine by LC-MS; average where tested multiple times; read-out: AC50.
Regarding `COc1cccn2nc([C@@H]3c4nc[nH]c4CCN3C(=O)c3nnc(-c4ccn(C(F)(F)F)n4)o3)cc12` [Example 1652, (S)-(4-(4-methoxypyrazolo[1,5-a]pyridin-2-yl)-6,7-dihydro-1H-imidazo[4,5-c]pyridin-5(4H)-yl)(5-(1-(trifluoromethyl)-1H-pyrazol-3-yl)-1,3,4-oxadiazol-2-yl)methanone], the half-maximal activity concentration (AC50) is 500 to 1000 nM. On the same count and under the same terms, next, `O=C(c1nnc(-c2ccccn2)o1)N1CCc2[nH]cnc2[C@H]1c1cc2cccc(C(F)F)n2n1` [Example 1421, (S)-(4-(7-(difluoromethyl)pyrazolo[1,5-a]pyridin-2-yl)-6,7-dihydro-1H-imidazo[4,5-c]pyridin-5(4H)-yl)(5-(pyridin-2-yl)-1,3,4-oxadiazol-2-yl)methanone]: less than 500 nM; `CN(C)c1ccc2c(C(=O)N3CCc4[nH]cnc4[C@@H]3c3cc4c(F)cccn4n3)cnn2c1` [Example 1773, (R)-(6-(dimethylamino)pyrazolo[1,5-a]pyridin-3-yl)(4-(4-fluoropyrazolo[1,5-a]pyridin-2-yl)-6,7-dihydro-1H-imidazo[4,5-c]pyridin-5(4H)-yl)methanone]: greater than 5000 nM. For `Cc1cccn2nc([C@@H]3c4nc[nH]c4CCN3C(=O)c3oc(-c4cncn4C)nc3C(F)F)cc12` [Example 891, (S)-(4-(difluoromethyl)-2-(1-methyl-1H-imidazol-5-yl)oxazol-5-yl)(4-(4-methylpyrazolo[1,5-a]pyridin-2-yl)-6,7-dihydro-1H-imidazo[4,5-c]pyridin-5(4H)-yl)methanone], the AC50 is less than 500 nM. On the same count and under the same terms, with `O=C(c1cnn2ccccc12)N1CCc2[nH]cnc2[C@H]1c1cc2ccccn2n1` [Example 600, (S)-(4-(pyrazolo[1,5-a]pyridin-2-yl)-6,7-dihydro-1H-imidazo[4,5-c]pyridin-5(4H)-yl)(pyrazolo[1,5-a]pyridin-3-yl)methanone] the figure was 500 to 1000 nM; with `FC(F)(F)c1cccc2cc([C@@H]3c4nc[nH]c4CCN3c3ncccn3)nn12` [Example 1765, (S)-5-(pyrimidin-2-yl)-4-(7-(trifluoromethyl)pyrazolo[1,5-a]pyridin-2-yl)-4,5,6,7-tetrahydro-1H-imidazo[4,5-c]pyridine], 500 to 1000 nM; with `Cn1cnc(-c2nnc(C(=O)N3CCc4[nH]cnc4[C@H]3c3cc4c(F)cccn4n3)o2)c1` [Example 809, (S)-(4-(4-fluoropyrazolo[1,5-a]pyridin-2-yl)-6,7-dihydro-1H-imidazo[4,5-c]pyridin-5(4H)-yl)(5-(1-methyl-1H-imidazol-4-yl)-1,3,4-oxadiazol-2-yl)methanone], 500 to 1000 nM. Same read-out and setting: next, `Cc1cccc2cc([C@@H]3c4nc[nH]c4CCN3C(=O)c3nnc(-c4ncccn4)o3)nn12` [Example 1337, (S)-(4-(7-methylpyrazolo[1,5-a]pyridin-2-yl)-6,7-dihydro-1H-imidazo[4,5-c]pyridin-5(4H)-yl)(5-(pyrimidin-2-yl)-1,3,4-oxadiazol-2-yl)methanone]: 500 to 1000 nM; `Cc1cccn2nc([C@@H]3c4nc[nH]c4CCN3C(=O)c3nnc(-c4ncccc4F)o3)cc12` [Example 819, (S)-(5-(3-fluoropyridin-2-yl)-1,3,4-oxadiazol-2-yl)(4-(4-methylpyrazolo[1,5-a]pyridin-2-yl)-6,7-dihydro-1H-imidazo[4,5-c]pyridin-5(4H)-yl)methanone]: less than 500 nM; `Cc1cccn2nc([C@H]3c4nc[nH]c4CCN3C(=O)c3nc(C(F)(F)F)nn3C)cc12` [Example 1057, (R)-(1-methyl-3-(trifluoromethyl)-1H-1,2,4-triazol-5-yl)(4-(4-methylpyrazolo[1,5-a]pyridin-2-yl)-6,7-dihydro-1H-imidazo[4,5-c]pyridin-5(4H)-yl)methanone]: greater than 5000 nM. Still for that read-out and setting: with `Cn1nc(C2CC2)nc1C(=O)N1CCc2[nH]cnc2[C@H]1c1cc2c(C(F)(F)F)cccn2n1` [Example 1081, (S)-(3-cyclopropyl-1-methyl-1H-1,2,4-triazol-5-yl)(4-(4-(trifluoromethyl)pyrazolo[1,5-a]pyridin-2-yl)-6,7-dihydro-1H-imidazo[4,5-c]pyridin-5(4H)-yl)methanone] the figure was less than 500 nM.

As for `CC(C)(O)c1nc(C(F)F)c(C(=O)N2CCc3[nH]cnc3[C@H]2c2cc3ccc(F)cn3n2)o1` [Example 1070, (S)-(4-(difluoromethyl)-2-(2-hydroxypropan-2-yl)oxazol-5-yl)(4-(6-fluoropyrazolo[1,5-a]pyridin-2-yl)-6,7-dihydro-1H-imidazo[4,5-c]pyridin-5(4H)-yl)methanone], the concentration at half-maximal activity (AC50) was less than 500 nM.

As for `Cc1ccc2c(C(=O)N3CCc4[nH]cnc4[C@@H]3c3cc4c(C(F)(F)F)cccn4n3)cnn2c1` [Example 1667, (R)-(6-methylpyrazolo[1,5-a]pyridin-3-yl)(4-(4-(trifluoromethyl)pyrazolo[1,5-a]pyridin-2-yl)-6,7-dihydro-1H-imidazo[4,5-c]pyridin-5(4H)-yl)methanone], the concentration at half-maximal activity (AC50) was greater than 5000 nM. `O=C(c1nnc(C2CC(F)(F)C2)o1)N1CCc2[nH]cnc2[C@H]1c1cc2c(F)cccn2n1` [Example 1604, (S)-(5-(3,3-difluorocyclobutyl)-1,3,4-oxadiazol-2-yl)(4-(4-fluoropyrazolo[1,5-a)pyridin-2-yl)-6,7-dihydro-1H-imidazo[4,5-c]pyridin-5(4H)-yl)methanone]: the AC50 lay in the range of 500 to 1000 nM. The same measure, in the same setting: with `O=C(c1nnc(-c2cnn(CC(F)(F)F)c2)o1)N1CCc2[nH]cnc2[C@@H]1c1cc2ccccn2n1` [Example 647, (R)-(4-(pyrazolo[1,5-a]pyridin-2-yl)-6,7-dihydro-1H-imidazo[4,5-c]pyridin-5(4H)-yl)(5-(1-(2,2,2-trifluoroethyl)-1H-pyrazol-4-yl)-1,3,4-oxadiazol-2-yl)methanone] the figure was greater than 5000 nM; with `Fc1cccn2nc([C@H]3c4nc[nH]c4CCN3c3ncccn3)cc12` [Example 1617, (R)-4-(4-fluoropyrazolo[1,5-a]pyridin-2-yl)-5-(pyrimidin-2-yl)-4,5,6,7-tetrahydro-1H-imidazo[4,5-c]pyridine], greater than 5000 nM.

(Values after patent publication US20230365592A1 (Agios Pharmaceuticals, Inc., priority 2022, published 2023).)
